From patent publication US12077503B2, “Substituted cyclic amides and their use as herbicides” (FMC CORPORATION, priority 2015, dated 2024)

What was measured:
Type in all cases: in vivo
[1] = system: ivy-leaved morning glory (Ipomoea hederacea); experiment: Test G Post-Emergence Protocol; conditions: Ipomoea, post-emergence, 312 h, read-out: Morningglory, Ivy-leaved damage rating
How it was run: (§1)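 Sow in soil; grow 8 d (24/16 °C, 14 h light, 65% humidity); spray 15.625/62.5/250 g/ha in acetone:water 50:50 + 0.5% Tween 20; grow on, water twice daily; score damage 0–100 at 13 d.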

[2] = system: redroot pigweed (Amaranthus retroflexus); experiment: Test G Post-Emergence Protocol; conditions: Amaranthus retroflexus, post-emergence, 312 h, read-out: Pigweed, Redroot damage rating
How it was run: as §1

[3] = system: velvetleaf (Abutilon theophrasti); experiment: Test G Post-Emergence Protocol; conditions: Abutilon theophrasti, post-emergence, 312 h, read-out: Velvetleaf damage rating
How it was run: as §1

[4] = system: barnyardgrass (Echinochloa crus-galli); experiment: Test G Post-Emergence Protocol; conditions: Echinochloa crus-galli, post-emergence, 312 h, read-out: Barnyardgrass damage rating
How it was run: as §1

[5] = system: giant foxtail (Setaria faberi); experiment: Test G Post-Emergence Protocol; conditions: Setaria faberi, post-emergence, 312 h, read-out: Foxtail, Giant damage rating
How it was run: as §1

corn (Zea mays) [6] = experiment: Test G Post-Emergence Protocol; conditions: Zea mays, post-emergence, 312 h, read-out: Corn damage rating
How it was run: as §1

[7] = system: ivy-leaved morning glory (Ipomoea hederacea); experiment: Test G Pre-Emergence Protocol; conditions: Ipomoea, pre-emergence, 312 h, evaluated after 13 days
How it was run: (§2)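 Test compound in 0.5% Tween 20 acetone/water (50:50) was applied at three rates (15.625, 62.5, 250 g/ha) to soil sown one day earlier. After 13 days plants were scored for injury, where 0 means unaffected and 100 means completely damaged.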

[8] = system: redroot pigweed (Amaranthus retroflexus); experiment: Test G Pre-Emergence Protocol; conditions: Amaranthus retroflexus, pre-emergence, 312 h, evaluated after 13 days
How it was run: as §2

[9] = system: velvetleaf (Abutilon theophrasti); experiment: Test G Pre-Emergence Protocol; conditions: Abutilon theophrasti, pre-emergence, 312 h, evaluated after 13 days
How it was run: as §2

[10] = system: barnyardgrass (Echinochloa crus-galli); experiment: Test G Pre-Emergence Protocol; conditions: Echinochloa crus-galli, pre-emergence, 312 h, evaluated after 13 days
How it was run: as §2

[11] = system: giant foxtail (Setaria faberi); experiment: Test G Pre-Emergence Protocol; conditions: Setaria faberi, pre-emergence, 312 h, evaluated after 13 days
How it was run: as §2

corn (Zea mays) [12] = experiment: Test G Pre-Emergence Protocol; conditions: Zea mays, pre-emergence, 312 h, evaluated after 13 days
How it was run: as §2

[13] = 15.625 g ai/ha, evaluated after 13 days (100=total damage to plant; 0=no damage to plant)
[14] = 62.5 g ai/ha, evaluated after 13 days, 100=total damage to plant, 0=no damage to plant
[15] = 250 g ai/ha, evaluated after 13 days, 100=total damage to plant, 0=no damage to plant

Cc1cc(F)ncc1NC(=O)[C@H]1C(=O)N(C)C[C@@H]1c1ccc(C(F)(F)F)cc1 (racemic) [Compound 1733]
pest or weed control at 15.625 g/ha [1, 13]: 20%
pest or weed control at 62.5 g/ha [1, 14]: 60%
pest or weed control at 250 g/ha [1, 15]: 70%
pest or weed control at 15.625 g/ha [2, 13]: 10%
pest or weed control at 62.5 g/ha [2, 14]: 20%
pest or weed control at 250 g/ha [2, 15]: 80%
pest or weed control at 15.625 g/ha [3, 13]: 0%
pest or weed control at 62.5 g/ha [3, 14]: 40%
pest or weed control at 250 g/ha [3, 15]: 80%
pest or weed control at 15.625 g/ha [4, 13]: 0%
pest or weed control at 62.5 g/ha [4, 14]: 0%
pest or weed control at 250 g/ha [4, 15]: 80%
pest or weed control at 15.625 g/ha [5, 13]: 10%
pest or weed control at 62.5 g/ha [5, 14]: 80%
pest or weed control at 250 g/ha [5, 15]: 80%
plant injury at 15.625 g/ha (corn (Zea mays) [6]; [13]): 0%
plant injury at 62.5 g/ha (corn (Zea mays) [6]; [14]): 50%
plant injury at 250 g/ha (corn (Zea mays) [6]; [15]): 70%
pest or weed control at 15.625 g/ha ([7]; 15.625 g ai/ha, read-out: Morningglory, Ivy-leaved damage rating (100=total damage to plant; 0=no damage to plant)): 0%
pest or weed control at 62.5 g/ha ([7]; 62.5 g ai/ha, 100=total damage to plant, 0=no damage to plant, read-out: Morningglory, Ivy-leaved damage rating): 20%
pest or weed control at 250 g/ha ([7]; 250 g ai/ha, read-out: Morningglory, Ivy-leaved damage rating (100=total damage to plant; 0=no damage to plant)): 80%
pest or weed control at 15.625 g/ha ([8]; 15.625 g ai/ha, read-out: Pigweed, Redroot damage rating (100=total damage to plant; 0=no damage to plant)): 0%
pest or weed control at 62.5 g/ha ([8]; 62.5 g ai/ha, 100=total damage to plant, 0=no damage to plant, read-out: Pigweed, Redroot damage rating): 70%
pest or weed control at 250 g/ha ([8]; 250 g ai/ha, read-out: Pigweed, Redroot damage rating (100=total damage to plant; 0=no damage to plant)): 80%
pest or weed control at 15.625 g/ha ([9]; 15.625 g ai/ha, read-out: Velvetleaf damage rating (100=total damage to plant; 0=no damage to plant)): 0%
pest or weed control at 62.5 g/ha ([9]; 62.5 g ai/ha, 100=total damage to plant, 0=no damage to plant, read-out: Velvetleaf damage rating): 50%
pest or weed control at 250 g/ha ([9]; 250 g ai/ha, read-out: Velvetleaf damage rating (100=total damage to plant; 0=no damage to plant)): 80%
pest or weed control at 15.625 g/ha ([10]; 15.625 g ai/ha, read-out: Barnyardgrass damage rating (100=total damage to plant; 0=no damage to plant)): 0%
pest or weed control at 62.5 g/ha ([10]; 62.5 g ai/ha, 100=total damage to plant, 0=no damage to plant, read-out: Barnyardgrass damage rating): 20%
pest or weed control at 250 g/ha ([10]; 250 g ai/ha, read-out: Barnyardgrass damage rating (100=total damage to plant; 0=no damage to plant)): 70%
pest or weed control at 15.625 g/ha ([11]; 15.625 g ai/ha, read-out: Foxtail, Giant damage rating (100=total damage to plant; 0=no damage to plant)): 10%
pest or weed control at 62.5 g/ha ([11]; 62.5 g ai/ha, 100=total damage to plant, 0=no damage to plant, read-out: Foxtail, Giant damage rating): 80%
pest or weed control at 250 g/ha ([11]; 250 g ai/ha, read-out: Foxtail, Giant damage rating (100=total damage to plant; 0=no damage to plant)): 90%
plant injury at 15.625 g/ha (corn (Zea mays) [12]; 15.625 g ai/ha, read-out: Corn damage rating (100=total damage to plant; 0=no damage to plant)): 0%
plant injury at 62.5 g/ha (corn (Zea mays) [12]; 62.5 g ai/ha, 100=total damage to plant, 0=no damage to plant, read-out: Corn damage rating): 20%
plant injury at 250 g/ha (corn (Zea mays) [12]; 250 g ai/ha, read-out: Corn damage rating (100=total damage to plant; 0=no damage to plant)): 80%
